Experiments:
[1] = system: colon26-M3.1 carcinoma cells; test: Inhibitory effect of intravenously-administered HD-2 on cancer metastasis (lung); assay type: in vivo, mice
Method: B16-BL6 melanoma cells or colon26-M3.1 carcinoma cells were inoculated into mice and number of metastatic tumor masses appearing in lungs was counted. […] The peak activity was observed a: 1-mg dose with very high anticancer efficacy (86%). […] This indicated oral administration of HD-2 was quite effective for treatment of established cancer.
In this experiment, HD-2 was administered intravenously with dosage less than 500 mg/kg body weight per day.

3T3-fibroblast cells = test: Cytotoxicity in 3T3-fibroblast cells, time course (XTT method); assay type: cell-based, murine
Method: Cloned tumor cells of P388 leukemia, L1210 leukemia, L5178Y lymphoma, Colon26-M3.1 carcinoma, and B16-BL6 melanoma, from mice, and K562 leukemia, liver carcinoma HEP-G2, Hs578T breast cancer, AN-3-CA adenocarcinoma, DLD colon carcinoma, and HeLa epitheloid carcinoma, from human beings, were cultured in EMM, DMEM, or RMPI-1640 culture media containing 7.5% fetal bovine serum (FBS), as described in ATCC manual. […] Tumor cells in test wells were incubated in 5% CO2 incubator at 37° C. for 2 days.
For further study of the cytotoxicity of each substance on cloned tumor cells, 3T3-fibroblast cells were cultured in test wells as described in experiment 1.

[2] = 1 μg intravenous administration +1
[3] = 10 μg intravenous administration +1
[4] = 10 μg intravenous administration +7
[5] = 100 μg intravenous administration +1

For N.N.[Cl][Pt][Cl] [cisplatin, reference compound], the inhibitory rate [1, 2] was 34.2%, the “number of metastatic mass, mean ± SD” value [1, 2] was 102 ± 28 and the inhibitory rate [1, 3] was 87.1%. The “number of metastatic mass, mean ± SD” value [1, 3] was 20 ± 13, the inhibitory rate [1, 4] was 50.0% and the “number of metastatic mass, mean ± SD” value [1, 4] was 77 ± 12. For the same compound, the inhibitory rate [1, 5] was 63.2%, the “number of metastatic mass, mean ± SD” value [1, 5] was 57 ± 22 and the “morphological observation of cells” value (3T3-fibroblast cells; 3T3, 34 hours of treatment) was “partial necrosis of tumor cells or slowing of tumor growth”. For the same compound, the tumor growth (3T3-fibroblast cells; 3T3, after 24 hours of administration) was “partial inhibition of tumor growth”.
